Measurements: PMC3502511, “Inhibition of the Prokaryotic Pentameric Ligand-Gated Ion Channel ELIC by Divalent Cations” (PLoS Biology, 2012)
Values joined by “and” are separate entries in the source; they are usually repeats but may differ in a detail not shown here. Equal values may be shown once. Read-outs that look alike come from different tables or passages of the source.

Columns and labels:
[1] = target: T1, ELIC R91A (Dickeya chrysanthemi, UniProt P0C7B7, INS163G/R91A); assay: Two-electrode voltage clamp, ELIC R91A in oocytes; assay type: cell-based, Erwinia chrysanthemi; settings: for Ki / Slope / pA: R91A; for Ki: Schild analysis, read-out: Ki app; for Slope: Schild plot slope; for pA: agonist cysteamine
T1 construct: expressed in transfected cells; host or cells: X. laevis oocytes
Method: (§1) Constructs containing the gene of either the WT or mutant channels preceded by the signal sequence of the chicken α7nAchR were cloned into the pTLN vector for expression in X. laevis oocytes. After linearization of the plasmid DNA by MluI, capped complementary RNA was transcribed with the mMessage mMachine kit (Ambion) and purified with the RNeasy kit (Qiagen). For expression, 1–50 ng of RNA was injected into defolliculated oocytes. Two-electrode voltage clamp measurements were performed 1 d after injection at 20°C (OC-725B, Warner Instrument Corp.). Currents were recorded in bath solutions containing 10 mM HEPES (pH 7), 130 mM NaCl, and the indicated concentrations of cysteamine and divalent cations. In case of solutions containing Zn^2+, cysteamine was replaced by propylamine. The membrane potential in all dose–response measurements was set to −40 mV. As ELIC is permeable to divalent cations, we tested if endogenous calcium-activated chloride channels affected our measurements. To chelate intracellular calcium ions, the oocytes were incubated for 15 to 30 min in bath solutions lacking divalent ions but containing 10 µM BAPTA-AM.

[2] = target: T2, ELIC WT (Dickeya chrysanthemi, UniProt P0C7B7, INS163G); assay: cell-based; assay type: cell-based, Erwinia chrysanthemi; settings: for Ki: Schild analysis, read-out: Ki app; for Slope: Schild plot slope
T2 construct: expressed in transfected cells; host or cells: X. laevis oocytes (cRNA injection, pTLN vector)
Method: as §1

[3] = target: T3, ELIC D113A/D158A (Dickeya chrysanthemi, UniProt P0C7B7, D113A/D158A/INS163G); assay: cell-based; assay type: cell-based, Erwinia chrysanthemi; settings: D113A/D158A; for Slope: Schild plot slope; for effects on the agonist dose-response curves in the double mutant / pA: agonist cysteamine
T3 construct: expressed in transfected cells; host or cells: X. laevis oocytes
Method: as §1

[4] = target: T4, ELIC D158N (Dickeya chrysanthemi, UniProt P0C7B7, D158N/INS163G); assay: Two-electrode voltage clamp, ELIC D158N in oocytes; assay type: cell-based, Erwinia chrysanthemi
T4 construct: expressed in transfected cells; host or cells: X. laevis oocytes
Method: as §1

[5] = target: T5, ELIC S84A (Dickeya chrysanthemi, UniProt P0C7B7, INS163G/S84A); assay: Two-electrode voltage clamp, ELIC S84A in oocytes; assay type: cell-based, Erwinia chrysanthemi; settings: S84A
T5 construct: expressed in transfected cells; host or cells: X. laevis oocytes
Method: as §1

[6] = target: T6, ELIC D86A (Dickeya chrysanthemi, UniProt P0C7B7, D86A/INS163G); assay: Two-electrode voltage clamp, ELIC D86A in oocytes; assay type: cell-based, Erwinia chrysanthemi
T6 construct: expressed in transfected cells; host or cells: X. laevis oocytes
Method: as §1

[7] = target: T7, ELIC E150A (Dickeya chrysanthemi, UniProt P0C7B7, E150A/INS163G); assay: Two-electrode voltage clamp, ELIC E150A in oocytes; assay type: cell-based, Erwinia chrysanthemi
T7 construct: expressed in transfected cells; host or cells: X. laevis oocytes
Method: as §1

[8] = target: T8, ELIC D113N (Dickeya chrysanthemi, UniProt P0C7B7, D113N/INS163G); assay: Two-electrode voltage clamp, ELIC D113N in oocytes; assay type: cell-based, Erwinia chrysanthemi
T8 construct: expressed in transfected cells; host or cells: X. laevis oocytes
Method: as §1

[9] = target: T9, ELIC (Dickeya chrysanthemi, UniProt P0C7B7, INS163G); settings: high Ca^2+ concentration; cited from earlier work
T9 construct: expressed in transfected cells; host or cells: HEK 293 cells (ATCC CRL-1573), pcDNA3

[10] = target: T10, ELIC D113A (Dickeya chrysanthemi, UniProt P0C7B7, D113A/INS163G); assay: Two-electrode voltage clamp, ELIC D113A in oocytes; assay type: cell-based, Erwinia chrysanthemi
T10 construct: expressed in transfected cells; host or cells: X. laevis oocytes
Method: as §1

[11] = target: T11, ELIC E150Q (Dickeya chrysanthemi, UniProt P0C7B7, E150Q/INS163G); assay: Two-electrode voltage clamp, ELIC E150Q in oocytes; assay type: cell-based, Erwinia chrysanthemi
T11 construct: expressed in transfected cells; host or cells: X. laevis oocytes
Method: as §1

[12] = target: T12, ELIC D158A (Dickeya chrysanthemi, UniProt P0C7B7, D158A/INS163G); assay: Two-electrode voltage clamp, ELIC D158A in oocytes; assay type: cell-based, Erwinia chrysanthemi
T12 construct: expressed in transfected cells; host or cells: X. laevis oocytes
Method: as §1

[13] = target: T13, ELIC N251A (Dickeya chrysanthemi, UniProt P0C7B7, N250A); assay: Two-electrode voltage clamp, ELIC N251A in oocytes; assay type: cell-based, Erwinia chrysanthemi
T13 construct: expressed in transfected cells; host or cells: X. laevis oocytes
Method: as §1

[14] = WT, Schild plot x-intercept (log of mM), agonist cysteamine, −40 mV
[15] = Schild analysis, read-out: Ki app

Work on `C[N+](C)(C)C` [TMA, tetramethylammonium] yielded a Ki [1] of 6000 µM, a Slope [1] of 0.8±0.1 and a pA [1] of 0.78±0.18.

Compound `[Ba+2]` [Ba^2+, barium] has a Ki ([2]; WT, agonist cysteamine) of 850 µM, a Slope ([2]; WT, agonist cysteamine) of 1.1±0.03 and a pA [2, 14] of −0.07±0.01. The Ki [3, 15] was 6500 µM, the Slope [3] was 0.6±0.02 and the “effects on the agonist dose-response curves in the double mutant” value [3] was “virtually abolishes”. For the same compound, the pA [3] was 0.81±0.02.

In the case of `CC(=O)OCC[N+](C)(C)C` [ACh, acetylcholine], the “increase in the Schild affinity in the mutant R91A” value ([1]; R91A versus WT) is reported as 10 fold, the Slope [1] is reported as 0.7±0.1 and the pA [1] is reported as −0.77±0.05. For the same compound, the pA ([2]; WT/1 mM Ca^2+ present, agonist cysteamine) was 0.35±0.01, the Slope ([2]; WT/1 mM Ca^2+) was 1.1±0.01 and the pA ([2]; WT/.25 mM Ca^2+ present, agonist cysteamine) was 0.06±0.06. The Slope ([2]; WT/.25 mM Ca^2+) was 0.9±0.1, the pA ([2]; WT/.5 mM Ca^2+ present, agonist cysteamine) was 0.11±0.09 and the Slope ([2]; WT/.5 mM Ca^2+) was 0.9±0.01. The Slope ([2]; WT, agonist cysteamine) was 1.0±0.1, the Slope ([2]; WT, agonist cysteamine, listed as acetylcholine) was “unity” and the pA [2, 14] was 0.21±0.06. The Slope [3] was 0.8±0.1 and the pA [3] was 0.32±0.06.

Work on `[Ca+2]` [Ca^2+, calcium] yielded a Ki [4, 15] of 3200 µM, a Slope ([4]; Schild plot slope) of 0.5±0.2 and a pA ([4]; agonist cysteamine) of 0.50±0.17. The Ki [5, 15] was 150 µM, the Slope ([5]; Schild plot slope) was 0.6±0.2 and the pA ([5]; agonist cysteamine) was −0.83±0.14. For the same compound, the Ki [6, 15] was 250 µM, the Slope ([6]; Schild plot slope) was 0.8±0.1 and the pA ([6]; agonist cysteamine) was −0.60±0.11. For the same compound, the Ki [7, 15] was 1700 µM, the Slope ([7]; Schild plot slope) was 1.0±0.2 and the pA ([7]; agonist cysteamine) was 0.23±0.12. It also gave a Ki [8, 15] of 950 µM, a Slope ([8]; Schild plot slope) of 1.0±0.01 and a pA ([8]; agonist cysteamine) of −0.02±0.08. The Ki [1] was 210 µM, the Slope [1] was 0.7±0.1 and the pA [1] was −0.69±0.03. The “maximum decrease of single channel currents” value [9] was “about 50%”, the Ki [10, 15] was 4900 µM and the Slope ([10]; Schild plot slope) was 1.0±0.3. For the same compound, the pA ([10]; agonist cysteamine) was 0.69±0.04, the Ki [11, 15] was 1200 µM and the Slope ([11]; Schild plot slope) was 0.9±0.3. For the same compound, the pA ([11]; agonist cysteamine) was 0.09±0.20, the “reduction of maximum agonist response” value ([2]; 5 mM Ca^2+, saturating cysteamine, −40 mV) was 55% and the pA ([2]; WT/1 mM ACh present, agonist cysteamine) was −0.65±0.01. For the same compound, the Ki ([2]; WT/1 mM ACh) was 220 µM, the Slope ([2]; WT/1 mM ACh) was 0.9±0.02 and the pA ([2]; WT/BAPTA (BAPTA-AM-treated oocytes), agonist cysteamine) was −0.69±0.11. The Ki ([2]; WT/BAPTA) was 200 µM, the Slope ([2]; WT/BAPTA) was 1.0±0.3 and the Ki ([2]; WT, agonist cysteamine) was 260 µM. For the same compound, the Slope ([2]; WT, agonist cysteamine) was 0.8 and 0.8±0.05, the pA [2, 14] was −0.57±0.03 and the IC50 ([2]; WT, maximum cysteamine response, read-out: IC50 of decline of maximum current response (Langmuir equation)) was 6000 µM. The “decrease in the agonist maximum response” value ([2]; at 6 mM calcium, channel block subtracted) was “about 50%”, the “effects on the agonist dose-response curves in the double mutant” value [3] was “virtually abolishes” and the Ki [12, 15] was 5400 µM. It also gave a Slope ([12]; Schild plot slope) of 1.2±0.1, a pA ([12]; agonist cysteamine) of 0.74±0.01 and a Ki [13, 15] of 530 µM. For the same compound, the Slope ([13]; Schild plot slope) was 0.9±0.2 and the pA ([13]; agonist cysteamine) was −0.27±0.19.
